The values that follow come from patent US6864046B1, “Method for collecting and preserving semen” (Texas Tech University, priority 2000, dated 2005).

The assay concerns spermatozoa. The following applies: calcium compound substituted for calcium chloride in Ringer's lactate; culturing 1-24 hr.

Regarding `O=C([O-])[O-].[Ca+2]` [calcium carbonate], the “semen function (percent motility, FIGS. 5a and 5b)” value is “maintained best”. The value for calcium gluconate was “maintained best”; that for calcium phosphate was “maintained best”.
